Read-outs that look alike come from different tables or passages of the source.
Columns and labels:
[1] = test system: older unfit patients with increased marrow blasts (>30%); conditions: cited from earlier work
[2] = test system: patients with AML; conditions: patients with AML on the Austrian AZA registry; cited from earlier work
[3] = single-agent PEV, cited from earlier work
[4] = test system: AML cells; conditions: cited from earlier work; for combination effect on viability: Combination Index and Blending Synergy Analysis
[5] = test system: patients with relapsed/refractory AML and MDS; conditions: single-agent PEV, cited from earlier work
[6] = Phase 1b clinical study (NCT01814826): plasma PK of PEV in combination with AZA; assay type: in vivo, human; conditions: for Cmax / half-life / Tmax: human; for Cmax / half-life / Tmax / AUC24 / AUC48: plasma; for Cmax / AUC24 / AUC48: geometric mean; for half-life: mean; for Tmax: median
Method: Serial blood samples for the determination of PEV concentrations were obtained during the first cycle of treatment, at pre-specified time points before and up to 48 hours after the start of the infusion on days 1 and 5.

[7] = AZA-AML-001, randomized AZA or CCR
[8] = intravenous, dose escalation, 20 mg/m^2 cohort (N = 6), cycle 1, day 1
[9] = intravenous, dose escalation, 20 mg/m^2 cohort (N = 6), cycle 1, day 5
[10] = intravenous, dose escalation, 30 mg/m^2 cohort (N = 3), cycle 1, day 1
[11] = iv, MTD expansion, IV AZA cohort (N = 26), cycle 1, day 1
[12] = iv, MTD expansion, IV AZA cohort (N = 26), cycle 1, day 5
[13] = sc, MTD expansion, SC AZA cohort (N = 28), cycle 1, day 1
[14] = sc, MTD expansion, SC AZA cohort (N = 28), cycle 1, day 5
[15] = dose escalation, 20 mg/m^2 cohort (N = 6), cycle 1, day 1
[16] = dose escalation, 20 mg/m^2 cohort (N = 6), cycle 1, day 5
[17] = dose escalation, 30 mg/m^2 cohort (N = 3), cycle 1, day 1

In the case of `Nc1ncn([C@@H]2O[C@H](CO)[C@@H](O)[C@H]2O)c(=O)n1` [AZA, azacitidine], the 1-year survival [1, 7] is given as 46.5%, the “median OS” value [1, 7] is given as 10.4 months and the response rates [1, 7] is given as 27.8%. The “composite CR/PR rate” value ([1]; patients randomized to AZA alone, large randomized French study (ref 6)) was 29% and the “median OS” value [2] was about 10 months.

In the case of `NS(=O)(=O)OC[C@@H]1C[C@@H](n2ccc3c(N[C@H]4CCc5ccccc54)ncnc32)C[C@@H]1O` [PEV, ((1S,2S,4R)-4-{4-[(1S)-2,3-dihydro-1H-inden-1-ylamino]-7H-pyrrolo[2,3-d]pyrimidin-7-yl}-2-hydroxycyclopentyl)methyl sulfamate], the “maximum tolerated dose (MTD)” value ([3]; schedule A: 1-hour IV infusion days 1, 3, 5 every 21 days) is given as 59 mg/m^2, the dose-limiting toxicity ([3]; schedule A) is given as “elevation of alanine aminotransferase (ALT)/aspartate aminotransferase (AST)” and the “maximum tolerated dose (MTD)” value ([3]; schedule B: days 1, 4, 8, 11 every 21 days) is given as 83 mg/m^2. The dose-limiting toxicity ([3]; schedule B) was “Multi-organ failure (MOF)”, the “DNA damage and cell death” value ([4]; PEV combined with AZA compared with either agent alone, immunoblotting and flow cytometry) was “significantly increased DNA damage and cell death” and the “combination effect on viability” value ([4]; PEV with AZA) was “synergistically lethal”. The “combination effect on viability” value ([4]; PEV with decitabine) was “synergistically lethal”, the “DLTs at starting dose” value (PEV 20 mg/m^2 (n=6) with AZA, dose escalation) was “absence of DLTs” and the “final posterior estimate of probability of toxicity” value (PEV 20 mg/m^2, CRM model) was 24%. The “DLTs in the MTD expansion cohort” value (PEV 20 mg/m^2 with AZA (n=55), grade ≥3 transaminase elevation) was “two additional patients experienced DLTs”, the “patients who experienced a DLT” value (PEV 30 mg/m^2 dose level (n=3) with AZA, grade 2 bilirubin elevation, grade 4 AST elevation) was “two of the three” and the “MTD for PEV” value (combined with AZA in standard doses, IV days 1, 3, 5 of 28-day cycles) was 20 mg/m^2. The “Overall response rate (ORR)” value ([5]; schedule A, patients treated at or below the MTD (4/23)) was 17%, the “Overall response rate (ORR)” value ([5]; schedule B, patients treated at or below the MTD (2/19)) was 10% and the “observed accumulation ratio Rac” value ([6]; day 5 versus day 1, five days of continuous dosing with AZA) was about 1. It also gave a Cmax [6, 8] of 158 ng/mL, a half-life [6, 8] of 7.8 h and a Tmax [6, 8] of 1.06 h. The Cmax [6, 9] was 165 ng/mL, the half-life [6, 9] was 7.98 h and the Tmax [6, 9] was 0.99 h. The Cmax [6, 10] was 299 ng/mL, the half-life [6, 10] was 7.39 h and the Tmax [6, 10] was 0.98 h. The Cmax [6, 11] was 155 ng/mL, the half-life [6, 11] was 7.45 h and the Tmax [6, 11] was 1.01 h. For the same molecule, the Cmax [6, 12] was 164 ng/mL, the half-life [6, 12] was 8.07 h and the Tmax [6, 12] was 1 h. The Cmax [6, 13] was 152 ng/mL, the half-life [6, 13] was 7.3 h and the Tmax [6, 13] was 1 h. For the same molecule, the Cmax [6, 14] was 148 ng/mL, the half-life [6, 14] was 7.89 h and the Tmax [6, 14] was 0.98 h. The AUC24 ([6]; MTD expansion, IV AZA cohort (N = 26), cycle 1, day 1) was 861 ng·h/mL, the AUC24 ([6]; MTD expansion, IV AZA cohort (N = 26), cycle 1, day 5) was 921 ng·h/mL and the AUC48 ([6]; MTD expansion, IV AZA cohort, N = 12, cycle 1, day 1) was 976 ng·h/mL. The AUC48 ([6]; MTD expansion, IV AZA cohort, N = 13, cycle 1, day 5) was 1100 ng·h/mL, the AUC24 ([6]; MTD expansion, SC AZA cohort (N = 28), cycle 1, day 1) was 890 ng·h/mL and the AUC24 ([6]; MTD expansion, SC AZA cohort (N = 28), cycle 1, day 5) was 926 ng·h/mL. It also gave an AUC48 ([6]; MTD expansion, SC AZA cohort, N = 11, cycle 1, day 1) of 1000 ng·h/mL, an AUC48 ([6]; MTD expansion, SC AZA cohort, N = 18, cycle 1, day 5) of 1100 ng·h/mL and an AUC24 [6, 15] of 990 ng·h/mL. It also gave an AUC48 [6, 15] of 1110 ng·h/mL, an AUC24 [6, 16] of 986 ng·h/mL and an AUC48 [6, 16] of 1090 ng·h/mL. For the same molecule, the AUC24 [6, 17] was 1640 ng·h/mL, the AUC48 [6, 17] was 1770 ng·h/mL and the “PEV PK in the presence of AZA compared with historical single-agent data” value ([6]; systemic exposure) was “not altered”.

Source: US20200377958A1, “BIOMARKERS AND METHODS FOR TREATMENT WITH NAE INHIBITORS” (Millennium Pharmaceuticals, Inc., priority 2017, published 2020)
